Results: patent US4032659A (priority 1975, dated 1977)

System: Influenza Ann Arbor virus
Test: Chemoprophylaxis of Influenza Ann Arbor (A1) virus infection in mice
Assay type: in vivo, mouse
[1] = subcutaneous, total dose .003 μg

SMILES	No. animals surviving after 7 days (oral, total dose 300 pg)	Survivors (oral, total dose 300 pg)	Survivors (oral, total dose 3 ng)	Survivors (oral, total dose 30 ng)	Survivors (oral, total dose 300 ng)	No. animals surviving after 7 days (oral, total dose 3 μg)	Survivors (oral, total dose 3 μg)	No. animals surviving after 7 days (oral, total dose 30 μg)	Survivors (oral, total dose 30 μg)	Survivors (oral, total dose 30 pg)	No. animals surviving after 7 days (oral, total dose 3 ng)	Survivors (oral, total dose 300 μg)	No. animals surviving after 6 days (oral, total dose 30 pg)	No. animals surviving after 6 days (oral, total dose 300 pg)	No. animals surviving after 6 days (oral, total dose 3 ng)	No. animals surviving after 6 days (oral, total dose 30 ng)	No. animals surviving after 6 days (oral, total dose 300 ng)	No. animals surviving after 6 days (oral, total dose 3 μg)	No. animals surviving after 6 days (oral, total dose 30 μg)	No. animals surviving after 6 days (oral, total dose 300 μg)	further results
N=C(N)NN [aminoguanidine]	6	1	1	2	4	8	3	8	5	–	–	–	–	–	–	–	–	–	–	–	survival (subcutaneous, one dose level): 50%; No. animals surviving after 7 days (subcutaneous, total dose 3 μg): 6; Survivors (subcutaneous, total dose 3 μg): 2; Survivors (subcutaneous, total dose 30 μg): 2; No. animals surviving after 7 days (subcutaneous, total dose .0003 μg): 8; No. animals surviving after 7 days [1]: 8; Survivors [1]: 0; Survivors (subcutaneous, total dose .03 μg): 1; Survivors (subcutaneous, total dose .3 μg): 1
C=CCNC(=S)NN=C1Cc2ccccc2C1 [2-Indanone, 4-allylthiosemicarbazone]	7	0	0	0	0	2	0	6	0	0	4	0	–	–	–	–	–	–	–	–	No. animals surviving after 7 days (oral, total dose 30 pg): 4; No. animals surviving after 7 days (oral, total dose 30 ng): 6; No. animals surviving after 7 days (oral, total dose 300 ng): 6; No. animals surviving after 7 days (oral, total dose 300 μg): 2; No. animals surviving after 7 days (oral, total dose 3 mg): 4; Survivors (oral, total dose 3 mg): 1
CCC(C)=NNC(=N)N.O=[N+]([O-])O [1-(sec-butylideneamino)guanidine, nitrate]	–	–	0	0	2	0	0	2	2	–	0	0	–	–	–	–	–	–	–	–	No. animals surviving after 7 days (oral, total dose 30 ng): 1; No. animals surviving after 7 days (oral, total dose 300 ng): 3; No. animals surviving after 7 days (oral, total dose 300 μg): 0
O=C(CCNNC(=O)c1ccncc1)NCc1ccccc1 [Nialamide, nialamide, reference compound]	–	–	–	–	–	–	–	–	–	–	–	–	–	–	–	–	–	–	–	–	Survivors (oral, total dose 400pg): 1; Survivors (oral, total dose 4ng): 1; Survivors (oral, total dose 40ng): 0; Survivors (oral, total dose 400ng): 0; Survivors (oral, total dose 4μg): 0; Survivors (oral, total dose 400 μg): 2; Survivors (oral, total dose 4 mg): 1
NC(N)=NN=Cc1c(Cl)cccc1Cl [[(2,6-dichlorobenzylidine)amino]guanidine acetate]	–	1	0	0	0	–	0	–	0	0	–	0	4	2	4	1	1	2	3	1	Toxicity (oral, total dose 3 mg): Toxic
CN(C)N [1,1-dimethylhydrazine]	–	0	1	0	0	–	0	–	1	0	–	0	5	3	3	2	3	2	1	3	No. animals surviving after 6 days (oral, total dose 3 mg): 2; Survivors (oral, total dose 3 mg): 0
NC(N)=S [Thiourea]	4	0	1	0	0	7	0	3	0	0	3	1	–	–	–	–	–	–	–	–	No. animals surviving after 7 days (oral, total dose 30 pg): 2; No. animals surviving after 7 days (oral, total dose 30 ng): 4; No. animals surviving after 7 days (oral, total dose 300 ng): 2; No. animals surviving after 7 days (oral, total dose 300 μg): 6; No. animals surviving after 7 days (oral, total dose 3 mg): 5; Survivors (oral, total dose 3 mg): 0
NC(=S)NN=C1Cc2ccccc2C1 [2-indanone, thiosemicarbazone]	–	0	0	0	1	–	1	–	0	1	–	0	–	–	–	–	–	–	–	–	No. animals surviving after 5 days (oral, total dose 30 pg): 8; No. animals surviving after 5 days (oral, total dose 300 pg): 8; No. animals surviving after 5 days (oral, total dose 3 ng): 5; No. animals surviving after 5 days (oral, total dose 30 ng): 9; No. animals surviving after 5 days (oral, total dose 300 ng): 8; No. animals surviving after 5 days (oral, total dose 3 μg): 8; No. animals surviving after 5 days (oral, total dose 30 μg): 8; No. animals surviving after 5 days (oral, total dose 300 μg): 6
CC(C)=NNC(N)=S [acetone, thiosemicarbazone]	–	0	0	0	0	–	0	–	0	1	–	0	3	2	2	2	3	5	2	3	–
CCC(CC)=NNC(N)=S [3-pentanone, thiosemicarbazone]	–	0	0	0	0	–	1	–	0	0	–	0	2	1	3	0	3	6	7	4	No. animals surviving after 7 days (oral, total dose 12 μg): 1; Survivors (oral, total dose 12 μg): 0; No. animals surviving after 7 days (oral, total dose 18 μg): 1; Survivors (oral, total dose 18 μg): 1; No. animals surviving after 7 days (oral, total dose 24 μg): 0; Survivors (oral, total dose 24 μg): 0; No. animals surviving after 7 days (oral, total dose 60 μg): 1; Survivors (oral, total dose 60 μg): 0; No. animals surviving after 7 days (oral, total dose 90 μg): 3; Survivors (oral, total dose 90 μg): 0; No. animals surviving after 7 days (oral, total dose 120 μg): 1; Survivors (oral, total dose 120 μg): 1; No. animals surviving after 7 days (oral, total dose 150 μg): 2; Survivors (oral, total dose 150 μg): 1
